SMILES strings stand for the structures. Values after ≈ are worked out from the molar mass of the structure shown.

Data set [1] can be described thus: AUC (0 to last) in rat at 300 mg/kg. Details: dose 300 mg/kg, time 0 - last. As to conditions: in vivo. The format is ADME, organism-based.
Data set [2] is described as follows: AUC (0 to last) in rat at 100 mg/kg. The note with it: in vivo. It counts as ADME, organism-based. Details: dose 100 mg/kg, time 0 - last.
Data set [3] can be described thus: AUC (0 to last) in rat at 30 mg/kg. Details: dose 30 mg/kg, time 0 - last. It counts as ADME, organism-based. As to conditions: in vivo.
Data set [4] concerns Rattus norvegicus. Briefly: Tumorigenic activity in rat assessed as effect on cell proliferation in non-glandular stomach at 300 mg/kg administered for 6 days and subsequent treatment at 200 mg/kg for 3 days measured on post last dose by Ki-67 staining based histopathological analysis relative to control. The format is ADME, organism-based. The note with it: in vivo.
Data set [5] deals with Rattus norvegicus. The data set can be described thus: Toxicity in rat assessed as reduction in body weight at 300 mg/kg administered for 6 days. The format is organism-based. The note with it: in vivo, 144 h.
The subject of data set [6] is Rattus norvegicus. Briefly: Toxicity in rat assessed as effect on food intake at 300 mg/kg administered for 6 days. It counts as organism-based. As to conditions: in vivo, 144 h.
Another data set deals with Mus musculus. Briefly: Reversal of thermal injury-induced muscle damage in C57BL/6 mouse assessed as reduction in Evans blue dye retention time at 10 mg/kg, po administered once daily via gavage treated for 10 days prior to thermal injury on day 4 and subsequent Evans blue dye injection on day 8 measured on day 9 post last dose relative to control. On the set-up: scale not given: the % may be the effect or the level left. The format is functional.

Data set [7] in a line: Thermodynamic solubility of the compound. The note with it: read-out: Therm_solubility. It counts as physicochemical.
Data set [8] is described as follows: AUC (0 to last) in rat at 300 mg/kg measured on day 8. It counts as ADME, organism-based. Details: dose 300 mg/kg, time 0 - last. The note with it: in vivo.
Data set [9] relates to Rattus norvegicus. Briefly: Tumorigenic activity in rat assessed as effect on cell proliferation in non-glandular stomach at 30 mg/kg administered for 14 days measured on post last dose by Ki-67 staining based histopathological analysis relative to control. It counts as ADME, organism-based. As to conditions: in vivo, 336 h.
The subject of data set [10] is Rattus norvegicus. The data set can be described thus: Tumorigenic activity in rat assessed as effect on cell proliferation in non-glandular stomach at 100 mg/kg administered for 14 days measured on post last dose by Ki-67 staining based histopathological analysis relative to control. The format is ADME, organism-based. As to conditions: in vivo, 336 h.

Take `C/C(=C\COc1ccccc1CN(C)C(=O)c1ccc(-c2ccco2)cc1)CCC(=O)O`: the exposure AUC(0-t) (as a rule, exposure summed from dosing to a finite time, without extrapolation to infinity) in [1] was found to be 201 µg·h/mL; in data set [2], 48 µg·h/mL.
With `Cc1cc(SCc2sc(-c3ccc(C(F)(F)F)cc3)nc2C)ccc1OCC(=O)O` [GW501516], the results for the AUC(0-t) in data set [3], in data set [2] and in data set [8] were 72 µg·h/mL, 613 µg·h/mL and 2270 µg·h/mL, respectively. Moreover, the Activity is on record as 190% in the data set with Rattus norvegicus [4]; “Toxic” in the data set with Rattus norvegicus [5]; “Toxic” in the data set with Rattus norvegicus [6]; 48% with Mus musculus; 34% in the data set on Rattus norvegicus [9]; 81% with Rattus norvegicus [10]. Further, the solubility thermodynamic in data set [7] was determined as 250 µM (≈ 113 µg/mL).

Values taken from ChEMBL document CHEMBL4184082 (Bioorg Med Chem Lett, 2018).
